# In patent US7576224B2, “Insecticidal (dihalopropenyl) phenylalkyl substituted dihydrobenzofuran and dihydrobenzopyran derivatives” (FMC Corporation, priority 2003, dated 2009):
# Experiments:
# [1] = tested on: tobacco budworm (Heliothis virescens [Fabricius]); assay: Surface-treated diet test against tobacco budworm; format: in vivo; conditions: 0.25 millimolar on the surface of the diet, second instar larvae, five-day exposure; for Percent Growth Inhibition: insect weight relative to untreated controls
# Source text: Surface-Treated Diet Test Against Tobacco Budworm
# The test compounds of formula I are identified by numbers that correspond to those in Table 1.
# [2] = tested on: tobacco budworm (Heliothis virescens [Fabricius]); assay: Foliar treated test against tobacco budworm (chick pea plants); format: in vivo; conditions: rate of application 30 ppm; foliage; 96 hour exposure
# Source text: (§1) Foliar Treated Test Against Tobacco Budworm and Cabbage Looper
# (§2) Nine-to-ten day-old chick pea plants (Cicer arietinum) were sprayed at 15 psi to runoff on both upper and lower leaf surfaces with solutions of test compound to provide application rates as high as 1000 ppm of test chemical. The solvent used to prepare the solutions of test compound was 10% acetone or methanol (v/v) and 0.1% of the surfactant octylphenoxypolyethoxyethanol in distilled water. Four replicates, each containing one chick pea plant, for each rate of application of test compound were sprayed. The treated plants were transferred to a hood where they were kept until the spray had dried.
# (§3) The four chick pea plants for each replicate treated with test compound as described above were removed from their pots by cutting the stems just above the soil line. The excised leaves and stems from the four plants in each replicate were placed in individual 237 mL (8-ounce) paper cups, which contained a moistened filter paper. Five second-instar (7 days old) tobacco budworms or cabbage loopers (7 days old) were counted into each cup, taking care not to cause injury. An opaque plastic lid was placed on each cup, which was then held in a growth chamber for a 96 hour exposure period at 25° C., 50% relative humidity and photo-period of 12 hours light and 12 hours dark. At the end of the 96 hour exposure period the cups were opened, and the numbers of dead, moribund, and live insects were counted. Using the insect counts, the efficacy of the test compound was expressed in percent control. Percent control is derived from the total number of dead insects (TD) plus the total number of moribund insects (TM) as compared to the total number of insects (TI) in the test:
# (§4) The condition of the test plants was also observed for phytotoxicity and for reduction of feeding damage as compared to an untreated control.
# [3] = tested on: cabbage looper (Trichoplusia ni [Hubner]); assay: Foliar treated test against cabbage looper (chick pea plants); format: in vivo; conditions: rate of application 30 ppm; foliage; 96 hour exposure
# Source text: as §1, §2, §3, §4
# [4] = tested on: Diamondback Moth (Plutella xylostella); assay: Foliar treated test against diamondback moth (cabbage leaf discs); format: in vivo; conditions: rate of application 30 ppm; foliage; 96 hour exposure
# Procedure: Four replicates, each containing one cabbage leaf disc, for each rate of application of test compound were dipped. The four cabbage leaf discs for each replicate treated were immersed for five seconds in the solution of test compound as described above. Each discs was then placed in individual 50 mm Petrie dishes containing a filter paper 42.5 mm in diameter that had been moistened with 100 μL of water. The uncovered Petrie dishes were then set aside until the leaf discs were dry. After this time, two third-instar diamondback moth larvae (10-14 days old) were carefully placed on each leaf disc. A tight-fitting lid was then placed on each Petrie dish, which was which was then held in a growth chamber for a 96 hour exposure period at 25° C., 50% relative humidity and photo-period of 12 hours light and 12 hours dark. At the end of the 96 hour exposure period the Petrie dishes were uncovered, and the numbers of dead, moribund, and live insects were counted. Using the insect counts, the efficacy of the test compound was expressed in percent control by methods set forth above in tests against the tobacco budworm and cabbage looper.
# [5] = Photostability (rate of photolysis, thin film on glass, Suntest CPS illuminator); format: physicochemical; conditions: for Percent of Compound 12 Half-life: relative photolysis half-life compared to compound 12; for Photolysis Half-life: thin film on glass coverslips, filtered xenon lamp, about 25° C.
# Procedure: These tests were conducted in the following manner:
# For each compound tested, three glass microscope coverslips (12 mm in diameter) for each illumination period (1, 3, 6, 12, and 24 hours) were spotted with 10 microliters of a one mg/mL acetonitrile or methanol solution of test compound. Three coverslips were also spotted with test compound and were not illuminated. The material on these non-illuminated coverslips was analyzed at the end of the experiment as described below to determine the test compound stability on glass. The solvents in each 10 microliter solution on each coverslip were allowed to evaporate leaving a thin film of test compound on each coverslip. Three of the coverslips representing the zero hour illumination period were then placed in a 20 mL scintillation vial. In the vial was placed one mL of acetonitrile, which extracted the test chemical from the coverslip. The solution was then transferred to a two-dram vial for analysis by HPLC. The average HPLC peak area generated by this sample defined the initial level of test compound. The remaining coverslips were then placed in the water-cooled chamber of the exposure platform of a Suntest CPS illuminator (Heraeus Instruments GmbH; Bereich Original Hanau, Hersaeusstrasse R-14, Postfach 1563, D-6450 Hanau 1). The exposure platform was covered with a quartz plate and maintained at about 25° C. for the duration of the test. The Suntest CPS illuminator employs a filtered xenon lamp, which provides illumination of a similar spectrum and intensity as sunlight. Three coverslips for each test compound were removed from the illuminator at 1, 3, 6, 12, and 24 hours of continuous illumination. Approximately eight hours of illumination is equivalent to one summer day at 40° N latitude. The three coverslips from each of the illumination periods were treated as described above and analyzed by HPLC. The average HPLC peak area from each of these illumination periods represents a diminished amount of test compound when compared to the initial level of test compound as determined from the zero hour illumination sample. The percents of test compound remaining from each of these illumination periods were used to generate a degradation curve from which a half-life in hours was determined for each test compound.
# [6] = tested on: cabbage looper; assay: Whole plant foliar treated test against cabbage looper; format: in vivo, Trichoplusia ni; conditions: cabbage plants sprayed, 96 hour exposure; for Percent Control at 25 g: rate of application 25 g; for Percent Control at 50 g: rate of application 50 g; for Percent Control at 100 g: rate of application 100 g
# Procedure: Whole Plant Foliar Treated Test Against Cabbage Looper
# For each rate of application of test compound, a 15 mL aliquot of test solution was prepared. Sufficient test compound was dissolved in 1.5 mL of acetone to provide an application rate as high as 1000 grams/Ha. Each solution was then added to 13.5 mL of water containing 300 ppm of a surfactant. There were four replicates for each rate of application of test compound, and all tests included a known chemical standard as well as a standard of water and surfactant and untreated checks.
# A maximum of 14 appropriately sized cabbage plants for each rate of application and replicate were arranged in a 28 pot plastic flat and sprayed with the 15 mL sample of test compound using an traveling boom sprayer equipped with a cone spray tip at a rate of 30 gallons/acre under a pressure of 40-44 psi. The untreated checks were sprayed first, followed by the test compounds and standards, all in order of lowest to highest rates of application. Once the spraying was complete, the test plants were allowed to air-dry on the conveyor on which they were sprayed.
# For each rate of application and replication, sufficient Petrie dishes, 50×9 mm in size, were lined with filter paper disks and each were moistened with 0.5 mL of distilled water. From each replicate cabbage plant at least three 2.5 cm disks were cut Each leaf disk was then placed in an individual Petrie dishes with the adaxial side of the leaf facing up. Following placement of the leaf disks, two neonate cabbage looper larvae were placed on each disk. Upon completion of infestation each Petrie dish was covered and held in a growth chamber for a 96 hour exposure period at 25° C., 40%-60% relative humidity and photo-period of 12 hours light and 12 hours dark. At the end of the 96 hour exposure period the Petrie dishes were opened, and the numbers of dead, moribund, and live insects were counted. Using the insect counts, the efficacy of the test compound was expressed in percent control. Percent control is derived from the total number of dead insects (TD) plus the total number of moribund insects (TM) as compared to the total number of insects (TI) in the test:
# [formula] The condition of the test plants was also observed for phytotoxicity and for reduction of feeding damage as compared to an untreated control.
Percent of Compound 12 Half-life [5],Photolysis Half-life [5],Structure (SMILES),Percent Mortality [1],Percent Growth Inhibition [1],Percent Control TBW (Tobacco Budworm) [2],Percent Control CL (Cabbage Looper) [3],Percent Control DBM (Diamondback Moth) [4],Percent Control at 25 g [6],Percent Control at 50 g [6],Percent Control at 100 g [6]
,,"CC1(C)Cc2cc(C(F)(F)F)cc(OCCCCOc3c(Cl)cc(OCC=C(Cl)Cl)cc3Cl)c2O1 [Compound 20, 5-(3,3-dichloroprop-2-enyloxy)-2-{4-[2,2-dimethyl-5-(trifluoromethyl)(2,3-dihydrobenzo[2,3-b]furan-7-yloxy)]-butoxy}1,3-dichlorobenzene]",100%,100%,,,,,,
,,"CC1(C)Cc2cccc(OC(=O)NCCCOc3c(Cl)cc(OCC=C(Cl)Cl)cc3Cl)c2O1 [Compound 53, N-{3-[4-(3,3-dichloroprop-2-enyloxy)-2,6-dichlorophenoxy]propyl}(2,2-dimethyl(2,3-dihydrobenzo[2,3-b]furan-7-yloxy))-carboxamide]",100%,100%,,,,,,
32%,6 h,Cc1cc2cccc(OCCCCOc3c(Cl)cc(OCC=C(Cl)Cl)cc3Cl)c2o1 [X],,,96%,50%,85%,8%,8%,13%
21%,4 h,ClC(Cl)=CCOc1cc(Cl)c(OCCCCCc2cc3ccccc3o2)c(Cl)c1 [Y],,,5%,,,,,
21%,4 h,ClC(Cl)=CCOc1cc(Cl)c(OCCCCOc2cccc3occc23)c(Cl)c1 [Z],,,60%,20%,60%,,,

Structure (SMILES),Percent of Compound 12 Half-life [5],Photolysis Half-life [5],Percent Mortality [1],Percent Growth Inhibition [1],Percent Control TBW (Tobacco Budworm) [2],Percent Control CL (Cabbage Looper) [3],Percent Control DBM (Diamondback Moth) [4],Percent Control at 25 g [6],Percent Control at 50 g [6],Percent Control at 100 g [6]
ClC(Cl)=CCOc1cc(Cl)c(OCCCCOc2cccc3ccoc23)c(Cl)c1 [Compound W],58%,11 h,,,62%,20%,60%,,,
"CC1(C)Cc2cccc(OCCCCOc3c(Cl)cc(OCC=C(Cl)Cl)cc3Cl)c2O1 [Compound 12, 5-(3,3-Dichloroprop-2-enyloxy)-2-[4-(2,2-dimethyl(2,3-dihydrobenzo[2,3-b]furan-7-yloxy))butoxy]-1,3-dichlorobenzene]",100%,19 h,100%,100%,88%,96%,91%,88%,100%,100%
